The subject of data set [1] is diastolic blood pressure (DBP). The data set is described as follows: Effects on blood pressure in dogs after i.v. administration. The data set is classed as in vivo. As to conditions: anaesthetised male beagle dogs, dose inducing a 25% decrease in diastolic blood pressure. The protocol: (§1) The experiments were performed according to the method of Imagawa et al. (J. Pharmacol. Methods 22, 103-111 (1989)), with substantial modifications, as follows: adult male beagle dogs, weighing 8-10 kg, were anaesthetised with pentobarbital sodium (30 mg/kg i.v. and 2 mg/kg/h i.v.), intubated and spontaneously ventilated with room air. In order to monitor systemic blood pressure (BP), a polyethylene (PE) catheter was introduced into the aortic arch through the left femoral artery. A collateral of the left femoral vein was cannulated for infusion of anaesthetic, and the right femoral vein was cannulated for administration of compounds. For intraarterial (i.a.) injection of noradrenaline (NA), a PE catheter was introduced into the lower portion of the abdominal aorta via the right external iliac artery. Through such procedure, NA was selectively distributed to the lower urinary tract. A paramedian vertical suprapubic incision extending from the base of the pelvis to the mid-abdominal region was made and the bladder and the prostate were exposed. The bladder was manually emptied with a syringe. Prostatic urethral pressure was monitored with a Mikro-tip catheter (5F) introduced into the bladder via the external urethral meatus, and withdrawn until the pressure transducer was positioned in the prostatic region of the urethra. A ligature was secured between the neck of the bladder and urethra to isolate the response of the latter and to avoid any interaction with the bladder. Another ligature was put around the Mikro-tip catheter at the external meatus, to secure the catheter itself.
After a stabilising period following the surgical procedure (30 minutes), in which arterial and prostatic urethral pressures were continuously monitored as basal values, i.a. administration of NA was made at intervals of 20 minutes.
The doses of NA chosen were such to produce an increase of at least 100% in urethral pressure. The test compounds were administered i.v. in a cumulative manner with intervals of 15-20 minutes between administrations. […]

The test system of data set [2] is urethral contractions (UC) induced by noradrenaline (NA). The data set can be described thus: Effects on urethral contractions induced by noradrenaline injection in dogs after i.v. administration. The following applies: for ED50: Canis lupus familiaris, iv, anaesthetised male beagle dogs, i.v., dose inhibiting by 50% the NA-induced increase in urethral pressure, read-out: UC ID50 NA; for Ratio (DBP/UC): ratio between the active doses DBP ED25 / UC ID50, dogs i.v. The data set is classed as in vivo, beagle dogs. As to the method: as §1, with “cathe[…])” for “catheter (5F)”, “itself. […] In order to compare the effects of the administered compound, dose/response curves (log dose transformation) were constructed by computing, at the peak effect, the percent decrease in diastolic blood pressure and percent inhibition of the increase in urethral pressure induced by NA.” for “itself.”

The target in the next data set is T1, α1L adrenoceptor subtype (Oryctolagus cuniculus, UniProt O02824).
T1 sequence (O02824 1-466): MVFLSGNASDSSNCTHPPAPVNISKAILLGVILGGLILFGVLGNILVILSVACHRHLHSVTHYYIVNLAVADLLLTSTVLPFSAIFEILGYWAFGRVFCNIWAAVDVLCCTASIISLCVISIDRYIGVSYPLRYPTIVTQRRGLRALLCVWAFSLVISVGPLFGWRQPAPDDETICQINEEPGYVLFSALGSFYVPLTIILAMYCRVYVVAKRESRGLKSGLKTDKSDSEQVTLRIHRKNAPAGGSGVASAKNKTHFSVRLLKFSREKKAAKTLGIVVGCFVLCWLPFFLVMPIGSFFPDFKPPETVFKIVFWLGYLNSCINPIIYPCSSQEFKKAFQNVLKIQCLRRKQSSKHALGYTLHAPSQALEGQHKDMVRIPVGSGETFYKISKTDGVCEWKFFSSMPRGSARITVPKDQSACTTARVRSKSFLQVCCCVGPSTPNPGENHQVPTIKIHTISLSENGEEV
The data set is described as follows: Functional affinity for α1L-adrenoceptors: noradrenaline-induced contractions of rabbit aorta pretreated with chloroethylclonidine. The data set is classed as biochemical. The following applies: rabbit aorta rings pretreated with chloroethylclonidine, NA-induced contractions, Schild plot or apparent Kb. As to the method: Adult male New Zealand rabbits were sacrificed by cervical dislocation. The aorta was removed, placed in Krebs-Henseleit buffer and dissected free of adhering tissue. […] After washout of NA and re-equilibration of the tissue (45 minutes), the drug to be tested was added and, after 30 minutes, a second NA-cumulative-concentration/response curve constructed. Each antagonist concentration was tested using 2-3 aortic rings from different rabbits.

In data set [3] the test system is urethral contractions (UC) induced by noradrenaline (NA). As to conditions: dogs, i.v.; data from Leonardi et al., J Pharmacol Exp Ther 281, 1272-1283 (1997); cited from earlier work.
For data set [4], the system named is diastolic blood pressure (DBP). As to conditions: dogs, i.v.; data from Leonardi et al., J Pharmacol Exp Ther 281, 1272-1283 (1997); cited from earlier work.

Read-outs that look alike come from different tables or passages of the source.

As to `COc1ccc(Cl)cc1N1CCN(CCCNC(=O)c2csc3c(=O)cc(-c4ccccc4)oc23)CC1` [Example 1, N-{3-[4-(5-Chloro-2-methoxyphenyl)-1-piperazinyl]-propyl}-7-oxo-5-phenyl-7H-thieno[3,2-b]pyran-3-carboxamide], in data set [1], the “DBP ED25” value amounted to 280 µg/kg. In data set [2], the ED50 came out at 5.3 µg/kg and the “Ratio (DBP/UC)” value was 52.8.
As usually defined, the pKb is −log10 of the Kb, conventionally taken in molar units. For `COc1ccccc1N1CCN(CCCNC(=O)c2cccc3c(=O)c(C)c(-c4ccccc4)oc23)CC1` [Compound A], the pKb on α1L adrenoceptor subtype was found to be 8.64. In addition, the “UC ID50 NA” value in data set [3] is recorded as 2.4 µg/kg. In data set [4], the “DBP ED25” value was 243 µg/kg.
Take `O=C(NCCCN1CCN(c2ccccc2OCC(F)(F)F)CC1)c1csc2c(=O)cc(-c3ccccc3)oc12` [Example 5, 7-Oxo-5-phenyl-N-{3-[4-[2-(2,2,2-trifluoroethoxy)-phenyl]-1-piperazinyl]-propyl}-7H-thieno[3,2-b]pyran-3-carboxamide]: the “DBP ED25” value in data set [1] is greater than 1000 µg/kg. For the same compound, in data set [2], the ED50 worked out at 2.7 µg/kg and the “Ratio (DBP/UC)” value is on record as greater than 370.
On the same counts, the results for `COc1ccccc1N1CCN(CCCNC(=O)c2csc3c(=O)cc(-c4ccccc4)oc23)CC1` [Example 2, N-{3-[4-(2-Methoxyphenyl)-1-piperazinyl]-propyl}-7-oxo-5-phenyl-7H-thieno[3,2-b]pyran-3-carboxamide] are 35.5 µg/kg, 1.8 µg/kg and 19.7.

These data come from patent EP1200445B1, “THIENOPYRANECARBOXAMIDE DERIVATIVES” (RECORDATI INDUSTRIA CHIMICA E FARMACEUTICA S.p.a., priority 1999, dated 2001).
